Values joined by “and” are separate entries in the source; they are usually repeats but may differ in a detail not shown here. Identical values can stand only once.
Columns and labels:
[1] = Urinary excretion of phenolic metabolites after intake of the GCPE nutraceutical; conditions: for Cumulative urinary excretion, Total 0–24 h / Urinary excretion: urine; for Cumulative urinary excretion, Total 0–24 h: mean ± SEM, n = 9
[2] = Plasma pharmacokinetics of phenolic metabolites after intake of the GCPE nutraceutical (LC-MS-QToF); conditions: for AUC(0-t) / Tmax: 300 mg hydroxycinnamic acids; for AUC(0-t): AUC0–24h; for Tmax: Tmax (h) or Range
[3] = week 0, GCPE nutraceutical with 300 mg hydroxycinnamic acids, mean ± SEM, n = 9
[4] = week 0, first peak where biphasic
[5] = week 8, GCPE nutraceutical with 300 mg hydroxycinnamic acids, mean ± SEM, n = 9
[6] = week 8, first peak where biphasic

| Compound | Cumulative urinary excretion, Total 0–24 h ([1]; week 0) | Cumulative urinary excretion, Total 0–24 h ([1]; week 8) | Amount excreted in urine, 0- 3 h ([1]; week 0, interval 0–3 h) | Amount excreted in urine, 3-6 h ([1]; week 0, interval 3–6 h) | Amount excreted in urine, 6-9 h ([1]; week 0, interval 6–9 h) | Amount excreted in urine, 9-11 h ([1]; week 0, interval 9–11 h) | Amount excreted in urine, 11-24 h ([1]; week 0, interval 11–24 h) | Amount excreted in urine, 0- 3 h ([1]; week 8, interval 0–3 h) | Amount excreted in urine, 3-6 h ([1]; week 8, interval 3–6 h) | Amount excreted in urine, 6-9 h ([1]; week 8, interval 6–9 h) | Amount excreted in urine, 9-11 h ([1]; week 8, interval 9–11 h) | Amount excreted in urine, 11-24 h ([1]; week 8, interval 11–24 h) | AUC0–24h ([2]; week 0) | Cmax [2, 3] | Tmax, second peak ([2]; week 0, biphasic profile) | Tmax (h) or Range [2, 4] | AUC0–24h ([2]; week 8) | Cmax [2, 5] | Tmax (h) or Range [2, 6] | also measured |
| --- | --- | --- | --- | --- | --- | --- | --- | --- | --- | --- | --- | --- | --- | --- | --- | --- | --- | --- | --- | --- |
| COc1ccc(CCC(=O)O)cc1OC [Dihydrodimethoxycinnamic acid, 3-(3′,4′-Dimethoxyphenyl)propanoic acid] | 0.7 ± 0.2 µmol | 0.63 ± 0.08 µmol | 0.08 ± 0.02 µmol | 0.08 ± 0.01 µmol | 0.2 ± 0.1 µmol | 0.09 ± 0.02 µmol | 0.27 ± 0.06 µmol | 0.08 ± 0.01 µmol | 0.06 ± 0.01 µmol | 0.12 ± 0.03 µmol | 0.12 ± 0.04 µmol | 0.25 ± 0.05 µmol | – | – | – | – | – | – | – | AUC(0-t) ([2]; human, oral, week 0): 1.2 ± 0.1 µM·h; AUC(0-t) ([2]; human, oral, week 8): 1.3 ± 0.1 µM·h; Tmax ([2]; human, oral, week 0, first peak where biphasic): 4 ± 1 h; Tmax ([2]; human, oral, week 8, first peak where biphasic): 10 ± 4 h; Cmax ([2]; human, oral, 300 mg, Cmax, week 0, GCPE nutraceutical with 300 mg hydroxycinnamic acids, mean ± SEM, n = 9): 110 ± 20 nM; Cmax ([2]; human, oral, 300 mg, Cmax, week 8, GCPE nutraceutical with 300 mg hydroxycinnamic acids, mean ± SEM, n = 9): 120 ± 10 nM |
| COc1cc(C=CC(=O)O)ccc1OC1OC(C(=O)O)C(O)C(O)C1O (centres unmarked) [FA-4′-glucuronide, 3′-Methoxycinnamic acid-4′-glucuronide] | 3.4 ± 0.4 µmol | 3.7 ± 0.5 µmol | 0.5 ± 0.1 µmol | 0.42 ± 0.07 µmol | 0.7 ± 0.2 µmol | 0.44 ± 0.09 µmol | 1.3 ± 0.3 µmol | 0.6 ± 0.1 µmol | 0.37 ± 0.05 µmol | 0.8 ± 0.1 µmol | 0.8 ± 0.3 µmol | 1.3 ± 0.2 µmol | 0.06 ± 0.01 µM/min | 16 ± 9 nM | 4.7 ± 0.3 h | 1.2 ± 0.3 h | 0.063 ± 0.02 µM/min | 9 ± 2 nM | 1.2 ± 0.3 h | – |
| COc1cc(C=CC(=O)O)ccc1OS(=O)(=O)O [FA-4′-sulfate, 3′-Methoxycinnamic acid-4′-sulfate] | 32 µmol and 32 ± 5 µmol | 33 µmol and 33 ± 5 µmol | 5 ± 2 µmol | 3.2 ± 0.9 µmol | 7 ± 2 µmol | 3.6 ± 0.7 µmol | 13 ± 2 µmol | 4 ± 2 µmol | 3.4 ± 0.7 µmol | 7 ± 1 µmol | 7 ± 2 µmol | 11 ± 2 µmol | 0.11 ± 0.03 µM/min | 17 ± 4 nM | 6.8 ± 0.7 h | 0.78 ± 0.09 h | 0.13 ± 0.02 µM/min | 17 ± 4 nM | 0.56 ± 0.06 h | Urinary excretion ([1]; week 0): 32 µmol/24 h; Urinary excretion ([1]; week 8): 33 µmol/24 h; Tmax, second peak ([2]; week 8, biphasic profile): 7.2 ± 0.6 h |
| COc1cc(/C=C/C(=O)NCC(=O)O)ccc1O [Feruloylglycine] | 19 ± 5 µmol | 25 ± 5 µmol | 1 ± 0.2 µmol | 0.9 ± 0.3 µmol | 4 ± 1 µmol | 2.6 ± 0.9 µmol | 3.9 ± 0.9 µmol | 1 ± 0.3 µmol | 1.2 ± 0.3 µmol | 3 ± 1 µmol | 3 ± 1 µmol | 3 ± 1 µmol | 0.029 ± 0.007 µM/min | Traces ^b | – | 7 ± 1 h | 0.026 ± 0.004 µM/min | Traces ^b | 8.4 ± 0.6 h | Cumulative urinary excretion, Total 0–24 h ([1]; week 0, listed as feruloylglycine): 19 µmol; Cumulative urinary excretion, Total 0–24 h ([1]; week 8, listed as feruloylglycine): 25 µmol; Amount excreted in urine, TOTAL ([1]; week 0, Table S5 total): 19 ± 5 µmol; Amount excreted in urine, 0 h ([1]; week 8, 0 h (before intake on sampling day)): 14 ± 4 µmol; Amount excreted in urine, TOTAL ([1]; week 8, Table S6 total): 25 ± 5 µmol; Cmax ([2]; weeks 0 and 8 not distinguished): trace levels |

From PMC9230201, “Sustained Consumption of a Decaffeinated Green Coffee Nutraceutical Has Limited Effects on Phenolic Metabolism and Bioavailability in Overweight/Obese Subjects” (Nutrients, 2022)
